Experiment: xn = mol fraction of the nth substance listed
Settings: Gas, Buoyancy - hydrostatic balance with magnetic suspension - one sinker

C=C(F)C(F)(F)F [2,3,3,3-tetrafluoro-1-propene] + FCF
Settings | mass density [kg/m3]
279.8 K, 225 kPa, x1 = 0.202 | 6.518
279.81 K, 366 kPa, x1 = 0.202 | 10.881
279.82 K, 422 kPa, x1 = 0.61 | 18.046
279.82 K, 531 kPa, x1 = 0.202 | 16.362
279.99 K, 139 kPa, x1 = 0.61 | 5.52
280 K, 292 kPa, x1 = 0.61 | 12.065
289.13 K, 223 kPa, x1 = 0.202 | 6.201
289.13 K, 326 kPa, x1 = 0.202 | 9.243
289.13 K, 498 kPa, x1 = 0.202 | 14.57
289.14 K, 652 kPa, x1 = 0.202 | 19.613
289.24 K, 435 kPa, x1 = 0.61 | 17.849
289.25 K, 300 kPa, x1 = 0.61 | 11.915
289.27 K, 142 kPa, x1 = 0.61 | 5.456
289.35 K, 825 kPa, x1 = 0.062 | 21.899
289.47 K, 272 kPa, x1 = 0.062 | 6.547
289.52 K, 465 kPa, x1 = 0.062 | 11.568
298.56 K, 1030 kPa, x1 = 0.062 | 27.002
298.65 K, 448 kPa, x1 = 0.61 | 17.642
298.65 K, 795 kPa, x1 = 0.062 | 19.996
298.67 K, 524 kPa, x1 = 0.062 | 12.632
298.68 K, 146 kPa, x1 = 0.61 | 5.4
298.68 K, 314 kPa, x1 = 0.062 | 7.355
298.7 K, 309 kPa, x1 = 0.61 | 11.815
298.95 K, 208 kPa, x1 = 0.366 | 6.462
298.96 K, 416 kPa, x1 = 0.366 | 13.396
298.97 K, 629 kPa, x1 = 0.366 | 21.025
299.11 K, 197 kPa, x1 = 0.202 | 5.25
299.11 K, 460 kPa, x1 = 0.202 | 12.798
299.11 K, 653 kPa, x1 = 0.202 | 18.744
299.11 K, 817 kPa, x1 = 0.202 | 24.131
308.21 K, 285 kPa, x1 = 0.062 | 6.408
308.21 K, 465 kPa, x1 = 0.062 | 10.702
308.21 K, 692 kPa, x1 = 0.062 | 16.408
308.21 K, 839 kPa, x1 = 0.062 | 20.316
308.21 K, 1102 kPa, x1 = 0.062 | 27.74
308.23 K, 1301 kPa, x1 = 0.062 | 33.802
308.29 K, 170 kPa, x1 = 0.61 | 6.134
308.3 K, 340 kPa, x1 = 0.61 | 12.602
308.32 K, 577 kPa, x1 = 0.61 | 22.346
308.33 K, 769 kPa, x1 = 0.61 | 30.942
308.47 K, 201 kPa, x1 = 0.366 | 6.029
308.47 K, 387 kPa, x1 = 0.366 | 11.937
308.47 K, 560 kPa, x1 = 0.366 | 17.726
308.47 K, 794 kPa, x1 = 0.366 | 26.137
308.69 K, 226 kPa, x1 = 0.202 | 5.868
308.69 K, 390 kPa, x1 = 0.202 | 10.341
308.69 K, 569 kPa, x1 = 0.202 | 15.462
308.7 K, 735 kPa, x1 = 0.202 | 20.457
308.7 K, 1050 kPa, x1 = 0.202 | 30.682
317.75 K, 163 kPa, x1 = 0.062 | 3.497
317.75 K, 406 kPa, x1 = 0.062 | 8.95
317.75 K, 648 kPa, x1 = 0.062 | 14.699
317.75 K, 910 kPa, x1 = 0.062 | 21.311
317.75 K, 1331 kPa, x1 = 0.062 | 32.968
317.78 K, 1625 kPa, x1 = 0.062 | 42.032
317.89 K, 139 kPa, x1 = 0.61 | 4.816
317.89 K, 309 kPa, x1 = 0.61 | 11.009
317.9 K, 527 kPa, x1 = 0.61 | 19.436
317.92 K, 735 kPa, x1 = 0.61 | 28.033
317.92 K, 929 kPa, x1 = 0.61 | 36.73
318.29 K, 219 kPa, x1 = 0.202 | 5.48
318.29 K, 398 kPa, x1 = 0.202 | 10.192
318.29 K, 586 kPa, x1 = 0.202 | 15.349
318.29 K, 790 kPa, x1 = 0.202 | 21.254
318.29 K, 1058 kPa, x1 = 0.202 | 29.49
318.3 K, 1336 kPa, x1 = 0.202 | 38.819
318.53 K, 165 kPa, x1 = 0.366 | 4.746
318.53 K, 351 kPa, x1 = 0.366 | 10.354
318.53 K, 563 kPa, x1 = 0.366 | 17.123
318.53 K, 766 kPa, x1 = 0.366 | 23.969
318.53 K, 1009 kPa, x1 = 0.366 | 32.745
327.52 K, 157 kPa, x1 = 0.61 | 5.289
327.52 K, 329 kPa, x1 = 0.61 | 11.37
327.52 K, 536 kPa, x1 = 0.61 | 19.029
327.53 K, 930 kPa, x1 = 0.61 | 35.068
327.54 K, 1122 kPa, x1 = 0.61 | 43.758
327.55 K, 734 kPa, x1 = 0.61 | 26.847
328.33 K, 223 kPa, x1 = 0.062 | 4.64
328.34 K, 637 kPa, x1 = 0.062 | 13.854
328.34 K, 945 kPa, x1 = 0.062 | 21.307
328.34 K, 1335 kPa, x1 = 0.062 | 31.333
328.34 K, 1696 kPa, x1 = 0.062 | 41.656
328.34 K, 2027 kPa, x1 = 0.062 | 52.145
328.43 K, 227 kPa, x1 = 0.202 | 5.515
328.43 K, 367 kPa, x1 = 0.202 | 9.049
328.43 K, 626 kPa, x1 = 0.202 | 15.83
328.43 K, 849 kPa, x1 = 0.202 | 22.032
328.43 K, 1140 kPa, x1 = 0.202 | 30.631
328.43 K, 1427 kPa, x1 = 0.202 | 39.78
328.43 K, 1696 kPa, x1 = 0.202 | 49.141
328.58 K, 1144 kPa, x1 = 0.366 | 36.066
328.58 K, 1280 kPa, x1 = 0.366 | 41.182
328.6 K, 618 kPa, x1 = 0.366 | 18.221
328.6 K, 894 kPa, x1 = 0.366 | 27.268
328.61 K, 203 kPa, x1 = 0.366 | 5.679
328.61 K, 380 kPa, x1 = 0.366 | 10.866
337.94 K, 261 kPa, x1 = 0.062 | 5.321
337.94 K, 1368 kPa, x1 = 0.062 | 30.983
337.95 K, 1030 kPa, x1 = 0.062 | 22.524
337.95 K, 1871 kPa, x1 = 0.062 | 44.844
337.95 K, 2216 kPa, x1 = 0.062 | 54.98
338.06 K, 1097 kPa, x1 = 0.202 | 27.951
338.06 K, 1440 kPa, x1 = 0.202 | 38.107
338.06 K, 1722 kPa, x1 = 0.202 | 47.144
338.06 K, 2012 kPa, x1 = 0.202 | 57.214
338.07 K, 229 kPa, x1 = 0.202 | 5.349
338.07 K, 435 kPa, x1 = 0.202 | 10.38
338.07 K, 663 kPa, x1 = 0.202 | 16.152
338.07 K, 900 kPa, x1 = 0.202 | 22.468
338.13 K, 157 kPa, x1 = 0.61 | 5.11
338.13 K, 347 kPa, x1 = 0.61 | 11.583
338.13 K, 545 kPa, x1 = 0.61 | 18.632
338.14 K, 742 kPa, x1 = 0.61 | 26.034
338.14 K, 949 kPa, x1 = 0.61 | 34.303
338.15 K, 1176 kPa, x1 = 0.61 | 43.906
338.15 K, 1363 kPa, x1 = 0.61 | 52.402
338.27 K, 391 kPa, x1 = 0.366 | 10.828
338.27 K, 1611 kPa, x1 = 0.366 | 51.607
338.28 K, 203 kPa, x1 = 0.366 | 5.523
338.28 K, 605 kPa, x1 = 0.366 | 17.163
338.28 K, 888 kPa, x1 = 0.366 | 25.992
338.28 K, 1124 kPa, x1 = 0.366 | 33.805
338.28 K, 1339 kPa, x1 = 0.366 | 41.354
346.7 K, 514 kPa, x1 = 0.202 | 11.999
346.7 K, 754 kPa, x1 = 0.202 | 17.999
346.7 K, 1075 kPa, x1 = 0.202 | 26.432
346.71 K, 102 kPa, x1 = 0.202 | 2.301
346.71 K, 314 kPa, x1 = 0.202 | 7.219
346.71 K, 1395 kPa, x1 = 0.202 | 35.395
346.71 K, 1836 kPa, x1 = 0.202 | 48.831
346.71 K, 2339 kPa, x1 = 0.202 | 66.017
346.72 K, 2053 kPa, x1 = 0.202 | 55.971
347.61 K, 2249 kPa, x1 = 0.062 | 52.666
347.62 K, 600 kPa, x1 = 0.062 | 12.06
347.62 K, 1099 kPa, x1 = 0.062 | 23.044
347.62 K, 1445 kPa, x1 = 0.062 | 31.254
347.62 K, 2663 kPa, x1 = 0.062 | 65.472
347.8 K, 256 kPa, x1 = 0.61 | 8.159
347.81 K, 464 kPa, x1 = 0.61 | 15.105
347.81 K, 667 kPa, x1 = 0.61 | 22.236
347.81 K, 880 kPa, x1 = 0.61 | 30.083
347.81 K, 1108 kPa, x1 = 0.61 | 38.968
347.81 K, 1320 kPa, x1 = 0.61 | 47.76
347.81 K, 1481 kPa, x1 = 0.61 | 54.813
347.81 K, 1715 kPa, x1 = 0.61 | 65.61
347.93 K, 143 kPa, x1 = 0.366 | 3.726
347.93 K, 390 kPa, x1 = 0.366 | 10.422
347.93 K, 675 kPa, x1 = 0.366 | 18.538
347.93 K, 897 kPa, x1 = 0.366 | 25.186
347.93 K, 1198 kPa, x1 = 0.366 | 34.699
347.93 K, 1496 kPa, x1 = 0.366 | 44.776
347.93 K, 1753 kPa, x1 = 0.366 | 54.093
347.94 K, 2000 kPa, x1 = 0.366 | 63.729
